Source: patent US8410150B2, “Inhibitors of carnitine palmitoyltransferase and treating cancer” (University Health Network, priority 2007, dated 2013)
Structures can show the parent of a compound that is named as a salt.

Biological target: T1, human CPT1A (Homo sapiens, UniProt P50416)
T1 construct: made in house; host or cells: Saccharomyces cerevisiae (pESC-trp) or cultured mammalian cells (pCDNA3.1); mitochondrial extract
T1 sequence (P50416 1-773): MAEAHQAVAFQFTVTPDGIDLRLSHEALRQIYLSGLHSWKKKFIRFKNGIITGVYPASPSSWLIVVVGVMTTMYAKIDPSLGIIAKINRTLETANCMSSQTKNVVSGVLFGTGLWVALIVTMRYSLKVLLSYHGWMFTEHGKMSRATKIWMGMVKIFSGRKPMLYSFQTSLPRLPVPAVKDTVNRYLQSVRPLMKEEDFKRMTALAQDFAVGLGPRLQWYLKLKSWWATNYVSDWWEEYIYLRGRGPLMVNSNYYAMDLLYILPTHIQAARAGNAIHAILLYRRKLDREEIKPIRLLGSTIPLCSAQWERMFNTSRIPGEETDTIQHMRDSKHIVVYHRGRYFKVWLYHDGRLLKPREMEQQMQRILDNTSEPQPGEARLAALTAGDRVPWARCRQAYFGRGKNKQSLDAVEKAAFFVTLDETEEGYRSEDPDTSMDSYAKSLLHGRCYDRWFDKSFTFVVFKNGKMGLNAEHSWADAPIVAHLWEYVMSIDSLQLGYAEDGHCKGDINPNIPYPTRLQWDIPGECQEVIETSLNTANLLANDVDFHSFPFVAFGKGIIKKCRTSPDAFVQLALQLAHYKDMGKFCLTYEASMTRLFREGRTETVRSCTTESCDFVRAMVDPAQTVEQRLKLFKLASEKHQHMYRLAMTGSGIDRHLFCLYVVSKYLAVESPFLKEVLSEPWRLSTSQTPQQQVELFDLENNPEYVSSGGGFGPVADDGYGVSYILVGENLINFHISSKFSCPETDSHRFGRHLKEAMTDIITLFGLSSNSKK
Test: Human CPT1A LC/MS assay
Format: biochemical
Settings: human CPT1A LC/MS assay, dose response format
Description: Nucleotide sequences encoding human CPT1 enzymes were individually cloned into the yeast expression vector pESC-trp at the Cla1 (5′ terminus) and Pac1 (3′ terminus) restriction sites by PCR amplification of the open reading frame using oligonucleotide primers designed to encode the wild-type CPT1 protein sequence. Standard molecular biology techniques were used to transform and express the CPT1 proteins in the yeast Saccharomyces cerevisiae. The yeast cells were lysed by enzymatic degradation of the cell wall by Zymolase, and the mitochondria were isolated by standard biochemical techniques. The integrity of the isolated mitochondria was monitored by determining the activity of succinate dehydrogenase in the mitochondrial preparations. The mitochondrial extracts were stored at −80° C. in buffer containing 10 mM HEPES pH 7.4 and 250 mM sucrose.
Human CPT1 (A, B, C) genes were additionally cloned into the pCDNA3.1 vector individually for expression in cultured mammalian cells. Cells expressing the exogenous CPT1A were identified and grown under standard conditions. Mammalian cells were harvested, and mitochondrial extracts prepared using standard biochemical methods. The mitochondrial extracts were stored at −80° C. in buffer containing 10 mM HEPES pH 7.4 and 250 mM sucrose.
Assays were performed in 96-well plate format. Each 100 μL reaction contained 40 mM KCl, 50 mM TrisHCl pH 7.5, and 250 mM mannitol (Assay Buffer), and 1.6 μg protein of an extract, 20 μM palmitoyl-CoA, 50 μM L-carnitine, and 10 ug/mL BSA. Reactions were incubated at room temperature and stopped after 10 minutes by extraction with 200 μL of water saturated n-butanol containing myristoyl carnitine (500 nM) as an internal standard. The samples were thoroughly mixed, and the phases separated by centrifugation. Samples were prepared for analysis with a 10 fold dilution of the n-butanol phase containing the reaction product palmitoyl carnitine into a 50:50 (acetonitrile:water) solvent for analysis. […] of prepared sample was separated on a Phenomenex Jupiter 5μ C4 reverse-phase column using an Agilent 1100 HPLC with a gradient from 50% acetonitrile (0.5% acetic acid) to 100% acetonitrile and quantified by detection with a Bruker Esquire 3000plus mass spectrometer. The abundance of the palmitoyl carnitine product was determined relative to the internal standard and the actual quantity of palmitoyl carnitine can be determined from a standard curve prepared using the n-butanol solution containing the internal standard.
Compounds were evaluated in two formats, a screening format, and a dose response format. The screening format was performed by adding 25 μL compound in 20% DMSO and Assay Buffer to 25 μL of extract containing […] and Assay Buffer, followed by a 10 minute incubation at room temperature. 50 μL of 40 μM palmitoyl-CoA in Assay Buffer was added to the reaction mixture, mixed and incubated for 10 minutes at room temperature. A negative control for activity was also performed where the carnitine was omitted from the reaction. A positive control for activity was also performed by omitting compound from the solution containing 20% DMSO and Assay Buffer. The reaction mixture was extracted and analyzed as described above. The inhibition by compound was determined by comparing the control relative activity to the relative activity observed in wells containing the compound. Relative activity was determined by subtracting the relative intensity (area palmitoyl carnitine/area myristoyl carnitine) observed in the negative control from the relative intensity observed in the experimental well, and dividing by the relative activity observed in the positive control.
[formula] Compound characterization by dose response format was performed using the above described assay conditions and a 16 point compound titration in 2 fold compound dilution steps. The DMSO concentration was kept constant at 20% (v/v) for all compound concentrations.

With CCCn1cc(C(=O)N[C@H](CC(=O)[O-])C[N+](C)(C)C)c(C)n1 [Example S54, (R)-3-(3-methyl-1-propyl-1H-pyrazole-4-carboxamido)-4-(trimethyl-ammonio)butanoate] the IC50 was 1000 to 2500 µM.

With C[N+](C)(C)C[C@@H](CC(=O)O)NC(=O)c1ccc(CCc2ccccc2)s1 [Example S45, (R)-3-(5-phenethylthiophene-2-carboxamido)-4-(trimethylammonio)-butanoate] the IC50 was no more than 1 µM.

CCCCCCCCOC(=O)Nc1ccc(S(=O)(=O)N[C@H](CC(=O)O)C[N+](C)(C)C)cc1 [Example S73, (R)-3-carboxy-N,N,N-trimethyl-2-(4-(octyloxycarbonylamino)phenyl-sulfonamido)propan-1-aminium 2,2,2-trifluoroacetate] showed an IC50 of 10 to 100 µM.

In the case of CN(C(=O)N[C@H](CC(=O)[O-])C[N+](C)(C)C)c1ccc(Oc2ccccc2)cc1 [Example S34, (R)-3-(3-methyl-3-(4-phenoxyphenyl)ureido)-4-(trimethyl-ammonio)butanoate], the IC50 is reported as 100 to 1000 µM.

In the case of CCCc1ccc(OCc2ccc(C(=O)N[C@H](CC(=O)[O-])C[N+](C)(C)C)o2)c(OC)c1 [Example S55, (R)-3-(5-((2-methoxy-4-propylphenoxy)methyl)furan-2-carboxamido)-4-(trimethylammonio)butanoate], the IC50 is reported as 10 to 100 µM.

Compound C[N+](C)(C)C[C@@H](CC(=O)O)NC(=O)c1cccc(-c2cc[nH]n2)c1 [Example S57, (R)-3-(3-(1H-pyrazol-3-yl)benzamido)-4-(trimethylammonio)butanoate trifluoroacetate] has an IC50 greater than 2500 µM.

Work on C[N+](C)(C)C[C@@H](CC(=O)O)NC(=O)c1ccc(Br)s1 [Example S95, (R)-2-(5-bromothiophene-2-carboxamido)-3-carboxy-N,N,N-trimethyl-propan-1-aminium trifluoroacetate] yielded an IC50 of 10 to 100 µM.

With Cc1ccc(C#Cc2ccc(S(=O)(=O)N[C@H](CC(=O)O)C[N+](C)(C)C)s2)cc1 [Example S80, (R)-3-carboxy-N,N,N-trimethyl-2-(5-(p-tolylethynyl)thiophene-2-sulfonamido)propan-1-aminium 2,2,2-trifluoroacetate] the IC50 was 10 to 100 µM.

In the case of Cc1cccc(OCc2ccc(C(=O)N[C@H](CC(=O)[O-])C[N+](C)(C)C)o2)c1 [Example S70, (R)-3-(5-(m-tolyloxymethyl)furan-2-carboxamido)-4-(trimethylammonio)-butanoate], the IC50 is reported as 1 to 10 µM.

CCOc1ccc(OCc2ccc(C(=O)N[C@H](CC(=O)[O-])C[N+](C)(C)C)o2)cc1 [Example S68, (R)-3-(5-((4-ethoxyphenoxy)methyl)furan-2-carboxamido)-4-(trimethyl-ammonio)butanoate] was tested, and the IC50 was no more than 1 µM.

For C[N+](C)(C)C[C@@H](CC(=O)[O-])NC(=O)Nc1ccc(Oc2ccccc2)cc1 [Example S8, (R)-3-(3-(4-phenoxyphenyl)ureido)-4-(trimethylammonio)butanoate], the IC50 was 10 to 100 µM.

CCCCCCOc1cccc(OCCCCCN(C)S(=O)(=O)N[C@H](CC(=O)[O-])C[N+](C)(C)C)c1 [Example S109, (R)-3-(N-(5-(3-(hexyloxy)phenoxy)pentyl)-N-methylsulfamoylamino)-4-(trimethylammonio)butanoate] showed an IC50 of no more than 1 µM.

Work on COc1ncc(C#Cc2ccc(C(=O)N[C@H](CC(=O)O)C[N+](C)(C)C)o2)cn1 [Example S117] yielded an IC50 of 100 to 1000 µM.

With C[N+](C)(C)C[C@@H](CC(=O)O)NC(=O)c1ccc(C#Cc2ccsc2)o1 [Example S116, (R)-3-carboxy-N,N,N-trimethyl-2-(5-(thiophen-3-ylethynyl)furan-2-carboxamido)propan-1-aminium 2,2,2-trifluoroacetate] the IC50 was 10 to 100 µM.

Work on C[N+](C)(C)C[C@@H](CC(=O)O)NS(=O)(=O)c1ccc(C#Cc2ccccc2)s1 [Example S78, (R)-3-carboxy-N,N,N-trimethyl-2-(5-(phenylethynyl)thiophene-2-sulfonamido)propan-1-aminium 2,2,2-trifluoroacetate] yielded an IC50 of 100 to 1000 µM.

For C[N+](C)(C)C[C@@H](CC(=O)O)NS(=O)(=O)c1ccc(Oc2ccccc2)nc1 [Example S19, (R)-3-carboxy-N,N,N-trimethyl-2-(6-phenoxypyridine-3-sulfonamido)propan-1-aminium 2,2,2-trifluoroacetate], the IC50 was 100 to 1000 µM.

Compound C[N+](C)(C)C[C@@H](CC(=O)O)NC(=O)c1ccc(NS(=O)(=O)c2cccs2)cc1 [Example S2, (R)-3-(4-(thiophene-2-sulfonamido)benzamido)-4-(trimethylammonio)-butanoate] has an IC50 of 100 to 1000 µM.

C[N+](C)(C)C[C@@H](CC(=O)[O-])NC(=O)c1ccc(CCc2ccccc2)cc1 [Example S64, (R)-3-(4-phenethylbenzamido)-4-(trimethylammonio)butanoate] showed an IC50 of 10 to 100 µM.

Cc1ncoc1C(=O)N[C@H](CC(=O)O)C[N+](C)(C)C [Example S49, (R)-3-carboxy-N,N,N-trimethyl-2-(4-methyloxazole-5-carboxamido)-propan-1-aminium trifluoroacetate] was tested, and the IC50 was 100 to 1000 µM.

With C[N+](C)(C)C[C@@H](CC(=O)[O-])NC(=O)Nc1ccc(C(F)(F)F)cc1Cl [Example S6, (R)-3-(3-(2-chloro-4-(trifluoromethyl)phenyl)ureido)-4-(trimethylammonio)-butanoate] the IC50 was 100 to 1000 µM.

In the case of CC(C)(C)c1ccc(OCc2ccc(C(=O)N[C@H](CC(=O)[O-])C[N+](C)(C)C)o2)cc1 [Example S60, (R)-3-(5-((4-tert-butylphenoxy)methyl)furan-2-carboxamido)-4-(trimethyl-ammonio)butanoate], the IC50 is reported as 100 to 1000 µM.

With CCCCCCCCCCCCN(c1ccccc1)S(=O)(=O)N[C@H](CC(=O)[O-])C[N+](C)(C)C [Example S32, (R)-3-(N-dodecyl-N-phenylsulfamoylamino)-4-(trimethylammonio)-butanoate] the IC50 was 10 to 100 µM.

C[N+](C)(C)C[C@@H](CC(=O)[O-])NC(=O)Nc1ccc(-c2cccs2)cc1 [Example S11, (R)-3-(3-(4-(thiophen-2-yl)phenyl)ureido)-4-(trimethylammonio)butanoate] showed an IC50 of 100 to 1000 µM.

CCCCCCCCCCc1ccc(NS(=O)(=O)N[C@H](CC(=O)O)C[N+](C)(C)C)cc1 [Example S92, (R)-3-(N-(4-decylphenyl)sulfamoylamino)-4-(trimethylammonio)butanoate] was tested, and the IC50 was no more than 1 µM.

CCCCCCC#Cc1cccc(N(C)S(=O)(=O)N[C@H](CC(=O)[O-])C[N+](C)(C)C)c1 [Example S112, (R)-3-(N—(N-methyl-N-(3-(oct-1-ynyl)phenyl)sulfamoyl)amino)-4-(trimethyl-ammonio)butanoate] gave an IC50 of 10 to 100 µM.

C[N+](C)(C)C[C@@H](CC(=O)[O-])NC(=O)c1ccc(CN2CCOCC2)o1 [Example S59, (R)-3-(5-(morpholinomethyl)furan-2-carboxamido)-4-(trimethylammonio)-butanoate] gave an IC50 of 1000 to 2500 µM.
